From the CombiSolv-Exp solvation set (Vermeire and Green 2021)

Assay: solvent given as SMILES

O=[N+]([O-])c1cccc2ccccc12
Details | solvation free energy, 298 K [kcal/mol]
in CC(C)(C)O | -9.71
in CC(C)CC(C)(C)C | -9.18
in CC(C)CCO | -9.67
in CC(C)CO | -9.55
in CC(C)O | -9.78
in CC(C)OC(C)C | -10.4
in CCC(C)O | -9.94
in CCCC(C)O | -9.83
in CCCCC(CC)CO | -9.76
in CCCCCC | -9.35
in CCCCCCC | -9.37
in CCCCCCCC | -9.38
in CCCCCCCCCC | -9.39
in CCCCCCCCCCO | -9.94
in CCCCCCCCO | -9.98
in CCCCCCCO | -9.98
in CCCCCCO | -10
in CCCCCO | -9.99
in CCCCO | -9.97
in CCCCOCCCC | -10.2
in CCCO | -9.99
in CCO | -10.1
in CCOCC | -11
in COC(C)(C)C | -10.9
in O | -5.65

CNc1nc(NC(C)C)nc(SC)n1
Details | solvation free energy, 298 K [kcal/mol]
in O | -10.5

CC(C)C(C)C(C)C
Details | solvation free energy, 298 K [kcal/mol]
in Brc1ccccc1 | -4.64
in C1CCCCC1 | -5.1
in C1CCOC1 | -4.92
in C1COCCO1 | -4.17
in C=CCCCC | -5
in C=CCCCCCC | -4.92
in C=CCCCCCCCC | -4.84
in CC1COC(=O)O1 | -2.86
in CC#N | -3.46
in CC(=O)N(C)C | -3.7
in CC(=O)O | -3.77
in CC(=O)c1ccccc1 | -3.96
in CC(C)=O | -4.14
in CC(C)CC(C)(C)C | -4.9
in CC(C)CCCC(C)CCCC(C)CCCCC(C)CCCC(C)CCCC(C)C | -4.48
in CC(C)CCO | -4.31
in CC(C)O | -4.09
in CC(C)OC(C)C | -4.9
in CCBr | -5.01
in CCC#N | -3.86
in CCC(C)=O | -4.39
in CCCC#N | -4.14
in CCCC(=O)OCC | -4.61
in CCCC(C)=O | -4.49
in CCCCC | -5.05
in CCCCCC | -5.03
in CCCCCC(C)=O | -4.51
in CCCCCCC | -4.98
in CCCCCCCC | -4.91
in CCCCCCCCC | -4.87
in CCCCCCCCCC | -4.84
in CCCCCCCCCCCC | -4.74
in CCCCCCCCCCCCCCCC | -4.66
in CCCCCCCCO | -4.33
in CCCCCCOC(C)=O | -4.59
in CCCCO | -4.23
in CCCCOC(C)=O | -4.56
in CCCCOCCCC | -4.88
in CCCO | -4.1
in CCN(CC)CC | -4.98
in CCO | -4.02
in CCOC(C)=O | -4.41
in CCOCC | -4.96
in CCOCCOCCOCC | -4.33
in CCOc1ccccc1 | -4.42
in CN1CCCC1=O | -3.6
in CN(C)C=O | -3.53
in CN(C)P(=O)(N(C)C)N(C)C | -3.97
in CNC=O | -3.19
in CO | -3.64
in COC(C)=O | -4.22
in COCCO | -3.52
in COc1ccccc1 | -4.35
in CS(C)=O | -2.63
in Cc1ccc(C)cc1 | -4.85
in Cc1ccccc1 | -4.85
in Cc1ccccn1 | -4.45
in ClC(Cl)(Cl)Cl | -5.09
in ClC(Cl)Cl | -4.98
in ClCCCl | -4.4
in ClCCl | -4.74
in Clc1ccccc1 | -4.84
in FC(F)(F)C(F)(F)C(F)(F)C(F)(F)C(F)(F)C(F)(F)C(F)(F)C(F)(F)F | -3.34
in FC(F)(F)C(F)(F)C(F)(F)C(F)(F)C(F)(F)C(F)(F)F | -3.4
in Fc1ccccc1 | -4.75
in ICI | -2.94
in N#Cc1ccccc1 | -4.01
in Nc1ccccc1 | -3.27
in O | 2.57
in O=C1CCCCC1 | -4.32
in O=C1CCCO1 | -3.01
in OCc1ccccc1 | -3.52
in S=C=S | -5.06
in c1ccccc1 | -4.83
in c1ccncc1 | -4.17

CC(C)=O
Details | solvation free energy, 298 K [kcal/mol]
in Brc1cccc2ccccc12 | -3.32
in C1CCOC1 | -3.89
in C1COCCO1 | -3.87
in CC#N | -4.32
in CC(=O)N(C)C | -3.95
in CC(=O)OCc1ccccc1 | -3.69
in CC(C)CC(C)(C)C | -2.44
in CC(C)CCCC(C)CCCC(C)CCCCC(C)CCCC(C)CCCC(C)C | -2.37
in CC(C)O | -3.36
in CC=O | -4.07
in CCC(C)=O | -3.98
in CCCCCC | -2.68
in CCCCCCC | -2.57
in CCCCCCCC | -2.53
in CCCCCCCCC=CCCCCCCCC(=O)OCC(COC(=O)CCCCCCCC=CCCCCCCCC)OC(=O)CCCCCCCC=CCCCCCCCC | -3.07
in CCCCCCCCCC | -2.46
in CCCCCCCCCCCCCCCC | -2.3
in CCCCCCCCO | -3.14
in CCCCCO | -3.4
in CCCCCl | -3.62
in CCCCN(C=O)CCCC | -3.55
in CCCCO | -3.51
in CCCCOCCCC | -3.04
in CCN1CCCC1=O | -3.77
in CCN(CC)C(C)=O | -3.82
in CCNC(C)=O | -3.56
in CCNC=O | -3.72
in CCO | -3.78
in CCOC(=O)c1ccccc1C(=O)OCC | -3.53
in CCOC(C)=O | -3.9
in CCOCC | -3.51
in CCOP(=O)(OCC)OCC | -3.64
in CI | -3.91
in CN1CCCC1=O | -3.94
in CN1CCCCC1=O | -3.82
in CN1CCN(C)C1=O | -3.61
in CN(C)C=O | -4.02
in CNC(C)=O | -3.67
in CNC=O | -3.82
in CO | -4.05
in COC(C)=O | -4.02
in COP(=O)(OC)OC | -3.97
in CS(C)=O | -3.67
in Cc1ccc(C)cc1 | -3.39
in Cc1cccc(C)c1 | -3.4
in Cc1ccccc1C | -3.36
in ClC(Cl)(Cl)Cl | -3.25
in ClC(Cl)Cl | -4.67
in ClCCCl | -4.27
in ClCCl | -4.62
in Clc1ccccc1 | -3.63
in N#CCCOCCC#N | -3.86
in NC=O | -3.77
in O | -3.84
in O=C1CCCCC1 | -3.8
in O=CN1CCOCC1 | -3.66
in OCCOCCO | -3.32
in S=C=S | -3.39
in [2H]O[2H] | -3.82
in c1ccc2ncccc2c1 | -3.62
in c1ccccc1 | -3.79
